Experimental data published in PMC6591251, “Discovery of potent necroptosis inhibitors targeting RIPK1 kinase activity for the treatment of inflammatory disorder and cancer metastasis” (Cell Death & Disease, 2019).
pEC50: −log10 of the molar value. Read-outs that look alike come from different tables or passages of the source.

Assays:
HeLa-MLKL (1–190) cells = assay: MLKL dimerization-induced cell death (AP20187); assay type: cell-based, human; details: AP20187 100 nM, 24 h
Protocol: (§1) Recombinant proteins were incubated with PK6 and PK68 as indicated. […] NIH3T3-RIPK3 cells were pretreated with indicated compounds for 1 h and subsequently treated with T (40 ng/ml)/S (100 nM)/Z (20 μM) or AP20187 (100 nM) for 24 h. Cell viability was determined by measuring ATP levels. e PK6 and PK68 have no effect on MLKL dimerization-induced cell death in HeLa-MLKL (1–190) cells that stably express MLKL (1–190aa) fused to DmrB. HeLa-MLKL (1–190) cells were pretreated with indicated compounds for 1 h and subsequently treated with AP20187 (100 nM) for 24 h. Cell viability was determined by measuring ATP levels.
Further, we evaluated the selectivity of PK68 against a panel of 369 kinases provided by Reaction Biology (at 1000 nM). […] In addition, we followed on some of the active “hits” from the kinome scan. PK68 was tested against TNIK and TRKA by a reputable CRO company. […] RIPK1 is known to mediate NF-κB activation independently of its kinase activity. […] It has been shown that homodimerization of RIPK3 or MLKL induced by the dimerizer leads to necroptosis bypassing the upstream signals[10],[37]. […] This dimerized RIPK3-induced necroptosis was blocked by RIPK3 inhibitor GSK873 but was not blocked by the RIPK1 inhibitor necrostatin-1. […] (Fig. 4e).
(§2) The cell viability was analyzed by using the CellTiter-Glo Luminescent Cell Viability Assay kit following the manufacturer’s instructions (Promega). Luminescence was measured with SpectraMax i3x (Molecular Devices).

NIH3T3-RIPK3 cells = assay: TNF-induced necroptosis (T/S/Z); assay type: cell-based, mouse; details: T/S/Z 24 h
Protocol: as §1, §2

HT-29 cells = assay: TNF-induced necroptosis (TNFα/Smac mimetic/z-VAD), cell viability by ATP levels; assay type: cell-based, human; details: for EC50: T/S/Z 48 h, read-out: EC50(nM) HT-29
Protocol: Necroptosis is tightly regulated by RIP kinases including RIPK1 and RIPK3. To develop new necroptosis inhibitors, we screened a small-molecule library of around 240 potential kinase inhibitors that were designed with novel structures to affect the ATP-binding pocket of protein kinases. Human colon cancer HT-29 cells were treated with these compounds for […], followed by treatment with necroptotic stimuli (TNFα, Smac mimetic, and z-VAD) that are known to activate TNF-mediated necroptosis. After 48 h, cell viability was analyzed by monitoring ATP levels.
Fig. 1 PK6 efficiently blocks TNF-α induced necroptosis in both human and mouse cells. a HT-29 cells cultured in 96-well plates were pretreated with the indicated compounds (10 μM) from a library consisting of ~240 compounds that we designed with novel structures for 1 h and subsequently treated with 40 ng/ml TNF-α (T), 100 nM Smac mimetic (S), and the caspase inhibitor 20 μM z-VAD(Z) for 48 h. Cell viability was assessed by measuring ATP levels. Data are represented as the mean ± standard deviation of duplicates. b Chemical structure of PK6. c Dose response curve and EC50 ± SD value for PK6 in TNF-α induced necroptosis in HT-29 cells. Cells were pretreated with indicated concentrations of PK6 for 1 h prior to the treatment with T (40 ng/ml), S (100 nM), and Z (20 μM) for 48 h. Cell viability was assessed by measuring ATP levels. d U937 cells were pretreated with indicated concentrations of PK6 for 1 h followed by the treatment with T (40 ng/ml), S (100 nM), and Z (20 μM) for 24 h. e MEF cells were pretreated with indicated concentrations of PK6 for 1 h followed by the treatment with T (40 ng/ml), S (100 nM), and Z (20 μM) for 24 h. f L929 cells were pretreated with indicated concentrations of PK6 for 1 h prior to the treatment with S (100 nM) and Z (20 μM) for 24 h.
Fig. 2 Chemical optimization of PK6 leads to improvements in anti-necroptotic activity. a, b The effects of the indicated compounds on cell viability were examined in HT-29 cells (a) and L929 cells (b). HT-29 cells were treated as indicate for 48 h and L929 cells for 24 h. Cell viability was assessed by measuring ATP levels. Data are represented as the mean ± standard deviation of triplicates. c Structure and EC50 ± SD value of each compound are shown in the table. EC50 values are the average of at least two independent determinations. d Lead optimization of PK6 TEXT PRINTED IN THE PICTURE: (c) PK6: EC50(nM) HT-29: 1200±53; EC50(nM) L929: 760±26 | (c) PK67: EC50(nM) HT-29: 250±6.3; EC50(nM) L929: 130±6.8 | (c) PK81: EC50(nM) HT-29: 120±7.6; EC50(nM) L929: 20±0.98 | (c) PK84: EC50(nM) HT-29: 97±6.7; EC50(nM) L929: 45±2.1 | (c) PK93: EC50(nM) HT-29: 130±36; EC50(nM) L929: 30±7.4 | (c) PK86: EC50(nM) HT-29: 73±3.9; EC50(nM) L929: 15±1.0 | (c) PK68: EC50(nM) HT-29: 23±1.4; EC50(nM) L929: 13±0.85
as §2

Row | Compound | polymerized MLKL-induced necroptosis (HeLa-MLKL (1–190) cells) | TNF-induced necroptosis in NIH3T3-RIPK3 cells (NIH3T3-RIPK3 cells) | pEC50 (HT-29 cells; Homo sapiens, HT-29, 48 h, T 40 ng/ml, S 100 nM, Z 20 μM, 48 h, read-out: EC50, TNF-induced necroptosis) | EC50 (HT-29 cells; Homo sapiens, HT-29, 48 h) | EC50 (HT-29 cells)
1 | CC(=O)Nc1nc2ccc(-c3cnc(Cl)c(NC(=O)Cc4ccccc4)c3)cc2s1 [PK6, N-(5-(2-acetamidobenzo[d]thiazol-6-yl)-2-chloropyridin-3-yl)-2-phenylacetamide] | neither PK6 nor PK68 had any effect | inhibit | ~5.92 | – | –
2 | CC(=O)Nc1nc2ccc(-c3cnc(C)c(NC(=O)OC4CCCCC4)c3)cc2s1 [PK68, cyclohexyl (5-(2-acetamidobenzo[d]thiazol-6-yl)-2-methylpyridin-3-yl)carbamate] | neither PK6 nor PK68 had any effect | inhibit | – | 23 nM | ~20 nM
